Measurements published in patent US6727285B1, “Use of D-arginine and/or L-arginine to protect the amino groups of biological substances from damage, inactivation, or modification by toxic carbonyls and/or dicarbonyls” (priority 1995, dated 2004).
Like-named read-outs stand apart in the source and are kept apart here.

Tests used:
[1] = test system: bovine serum albumin; experiment: Protectant pretreatment against methylglyoxal gel formation of bovine serum albumin, pH adjusted by titration NaOH/HCL (Example 3, Table 6); type: biochemical
Protocol: As described in TABLE #6,2 ml. bovine serum albumin 30% solution was added to each of eight 7 ml. glass test tubes. One millimole of guanidine was added to tube #1; no protectant was added to tubes #2, #3, and #4. […] Into test tube #6 was added 1 millimole of L-arginine hydrochloride, the pH was adjusted to 7.40 by micro-drop titration. Into test tube #7 was added 1 millimole of L-arginine hydrochloride, not pH adjusted. Into test tube #8 was added 1 millimole of D-arginine hydrochloride, not pH adjusted. […] After 3 hours the heating unit was turned off reducing the temperature to room temperature, 75 degrees Fahrenheit, to prevent the drying out of the sample and the reaction was allowed to proceed overnight.

[2] = test system: bovine serum albumin; experiment: Protectant pretreatment against methylglyoxal cross-linking of HEPES-buffered bovine serum albumin (Example 2, Table 5); type: biochemical; settings: 2 ml 30% BSA, 1 millimole protectant, 1 millimole methylglyoxal
Protocol: As described in TABLE #5, 2 cc of 30% bovine serum albumin was added by glass pipette to each of 6 glass 7 ml. test tubes numbered 1 through 6. 1 millimole of L-arginine hydrochloride in 0.5 ml. of 6 molar HEPES buffer was added to tube #1. 1 millimole of L-arginine hydrochloride in 0.4 ml. of 6 molar HEPES buffer was added to tube #2. 1 millimole D-arginine hydrochloride in 0.5 ml. of 6 molar HEPES buffer was added to tube #3. 1 millimole D-arginine hydrochloride in 0.4 ml. of 6 molar HEPES buffer was added to tube #4. 0.5 ml. of 6 molar HEPES buffer was added to tube #5. 1 millimole of glycocyamine in 0.5 ml. of 6 molar HEPES buffer was added to tube #6.
The pH was measured periodically and observations were made and recorded. At three hours the heating unit was reduced to room temperature, 75 degrees Fahrenheit, to prevent drying and the reaction allowed to proceed.

[3] = molecular target: T1, bovine serum albumin (Bos taurus, UniProt P02769); type: biochemical; settings: for gel formation of albumin samples: pretreated with 1 millimole, 2 ml 30% BSA, 1 millimole methylglyoxal, HEPES buffered, 98.6 F., 217 rpm
T1 construct: HEPES salt, HEPES acid, and bovine serum albumin was obtained from Sigma; purchased Sigma
T1 sequence (P02769 25-607): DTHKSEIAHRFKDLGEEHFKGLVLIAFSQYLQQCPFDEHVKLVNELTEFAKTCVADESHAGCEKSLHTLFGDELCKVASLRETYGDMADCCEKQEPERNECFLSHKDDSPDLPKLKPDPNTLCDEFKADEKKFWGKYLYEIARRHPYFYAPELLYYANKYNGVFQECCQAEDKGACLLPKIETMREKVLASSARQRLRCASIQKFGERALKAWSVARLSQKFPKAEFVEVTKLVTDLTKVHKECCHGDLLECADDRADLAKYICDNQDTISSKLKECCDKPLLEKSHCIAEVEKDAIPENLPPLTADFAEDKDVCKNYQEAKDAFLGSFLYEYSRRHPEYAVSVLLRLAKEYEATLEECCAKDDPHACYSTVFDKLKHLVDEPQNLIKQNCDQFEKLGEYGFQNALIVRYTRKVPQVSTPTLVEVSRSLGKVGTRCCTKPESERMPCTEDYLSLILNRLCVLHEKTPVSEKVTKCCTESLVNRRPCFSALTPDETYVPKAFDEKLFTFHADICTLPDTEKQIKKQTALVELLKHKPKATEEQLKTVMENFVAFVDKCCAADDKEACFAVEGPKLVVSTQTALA
Protocol: The magnetic stirrer was set to 217 rpm. The pH was checked at five minutes.
The pH was constantly monitored as were the color and fluid characteristics of the mixture. […] The end-point was recorded when a visible non-flowing gel formed in the tube and could not be caused to flow when the tube was inverted at 40 degrees below the horizontal for two minutes.

[4] = test system: New Zealand White rabbits made diabetic by streptozotocin; experiment: Streptozotocin-diabetic rabbits given i.v. radiolabeled glucose, kidney examination (Example 6); settings: arginine HCL oral 30 mg/kg/day or i.v. 10 mg/kg/day, radiolabeled glucose i.v. daily
Protocol: (§1) Group 2: The rabbits of group 2 are fed a diet supplemented with oral D-arginine HCL 30 mg/kg/day (or an appropriate dose which can range from, for example, but not limited to, 1 mg/kg/day to 100 mg/kg/day).
(§2) Group 3: The rabbits of group 3 are fed a diet supplemented with oral L-arginine HCL 30 mg/kg/day (or an appropriate dose which can range from, for example, but not limited to, 1 mg/kg/day to 100 mg/kg/day).
(§3) Group 4: The rabbits of group 4 receive L-arginine HCL by ear vein in 10 cc normal saline at a dose of 10 mg/kg/day (or an appropriate dose which can range from, for example, but not limited to, 1 mg/kg/day to 100 mg/kg/day) for the duration of the experiment.
(§4) Group 5: The rabbits of group 5 receive D-arginine HCL by ear vein in 10 cc normal saline at a dose of 10 mg/kg/day (or an appropriate dose which can range from, for example, but not limited to, 1 mg/kg/day to 100 mg/kg/day) for the duration of the experiment.
(§5) At the end of the experiment, all animals are sacrificed and their kidneys removed, sectioned and examined for gross and microscopic changes, as well as for accumulation of the radiolabel, with special attention to the glomerular basement membrane.

[5] = molecular target: T2, ovalbumin (Gallus gallus, UniProt P01012); experiment: Reaction of methylglyoxal with ovalbumin (egg albumin); type: biochemical
T2 sequence (P01012 1-386): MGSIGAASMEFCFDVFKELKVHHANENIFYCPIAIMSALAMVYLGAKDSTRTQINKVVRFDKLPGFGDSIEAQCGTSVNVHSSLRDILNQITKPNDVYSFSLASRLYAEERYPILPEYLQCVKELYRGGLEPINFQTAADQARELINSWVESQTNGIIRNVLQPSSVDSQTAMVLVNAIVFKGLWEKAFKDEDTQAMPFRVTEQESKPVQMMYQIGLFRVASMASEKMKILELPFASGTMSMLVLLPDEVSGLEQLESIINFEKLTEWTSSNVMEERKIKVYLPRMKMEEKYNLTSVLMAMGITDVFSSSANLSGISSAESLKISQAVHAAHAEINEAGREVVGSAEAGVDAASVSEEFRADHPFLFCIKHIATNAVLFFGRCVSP

[6] = test system: bovine serum albumin; experiment: Blocking of methylglyoxal or glyoxal cross-linking (gel formation) of albumin, inventor's tests; type: biochemical; settings: for gelatin formation of bovine serum albumin when methylglyoxal is added: acidic solution, room temperature, 2 cc BSA pretreated with one millimole; for gelatin formation of bovine serum albumin when methylglyoxal is added / conversion of bovine serum albumin from liquid to gelatin by methylglyoxal: one millimole methylglyoxal; for blocking of the cross-linking of albumin by methylglyoxal or glyoxal: arginines: hydrochloride salts and free base forms; for conversion of bovine serum albumin from liquid to gelatin by methylglyoxal: pH 6.4 to 7.4, room temperature, 75, 80, 83, 90 and 98.6 degrees Fahrenheit, 2 cc 30% BSA pretreated with one millimole; for methylglyoxal-induced gel formation of liquid bovine serum albumin: pretreatment, free base or hydrochloride form
[7] = test system: New Zealand White rabbits made diabetic by streptozotocin; settings: arginine HCL oral 30 mg/kg/day or i.v. 10 mg/kg/day, radiolabeled methylglyoxal i.v. daily
Protocol: as §1, §2, §3, §4, §5

[8] = test system: insulin dependent diabetic; experiment: L-arginine hydrochloride in a diabetic patient with painful feet (Example 9); type: in vivo, human; settings: 700 mg twice a day (1,400 mg per day), 120kg, painful feet secondary to vasculopathy and/or neuropathy, within 6 weeks
[9] = test system: New Zealand White rabbits; settings: arginine HCL oral 30 mg/kg/day or i.v. 10 mg/kg/day, methylglyoxal i.v. daily
Protocol: as §1, §2, §3, §4

[10] = test system: non-diabetic animal model; experiment: Non-diabetic rabbits challenged with radiolabeled methylglyoxal (Example 7); settings: otherwise identical to Example 5
[11] = molecular target: T1, bovine serum albumin; type: biochemical
Protocol: As described in TABLE #4, 2 cc of 30% bovine serum albumin (BSA) was added by glass pipette (Kimax 1/100) to each of three glass 7 ml. test tubes numbered 1, 2, and 3. 0.4 ml. of 6 molar HEPES buffer was added to tube #1 by glass pipette. 0.5 ml. of 6 molar HEPES buffer was added to test tube #2. 0.3 ml. of 6 molar HEPES buffer was added to tube #3.

[12] = 2 ml BSA + 1 millimole protectant not pH adjusted, 0.18 ml of 40% pH-adjusted methylglyoxal
[13] = 2 ml BSA + 1 millimole protectant, pH adjusted to 7.40-7.46 with NaOH/HCL, 0.18 ml of 40% pH-adjusted methylglyoxal

## Cl.N=C(N)NCCC[C@@H](N)C(=O)O [D-arginine Hydrochloride, D-arginine hydrochloride]
[1]; [12]
  FINAL FORM: LIQUID
  Observation overnight: later; remained liquid overnight;
[1]; [13]
  FINAL FORM: LIQUID
  Observation at 1 hr. 5 min.: brownish, yellow liquid,
  Observation overnight: Remained liquid
[2]; 6 m HEPES 0.4 ml
  FINAL FORM: LIQUID
[2]; 6 m HEPES 0.5 cc/ml
  FINAL FORM: LIQUID
[3]
  gel formation of albumin samples: did not gel at any time and remained liquid

## N=C(N)NCCC[C@@H](N)C(=O)O [D-arginine]
[4]
  accumulation of radiolabeled glucose metabolites in the kidneys compared with the control: reduced or absent
  gross and microscopic changes in the kidney compared to the control: reduced or absent
[5]
  binding of methylglyoxal to egg albumin: capable of blocking the binding
[6]
  binding of methylglyoxal to bovine serum albumin: capable of blocking the binding
  gelatin formation of bovine serum albumin when methylglyoxal is added: prevent gelatin formation
  blocking of the cross-linking of albumin by methylglyoxal or glyoxal: worked consistently
  conversion of bovine serum albumin from liquid to gelatin by methylglyoxal: the albumin remains liquid
  methylglyoxal-induced gel formation of liquid bovine serum albumin: block methylglyoxal-induced gel formation
[7]
  accumulation of radiolabeled methylglyoxal in the kidneys compared with the control: reduced or absent
  gross and microscopic changes in the kidney compared to the control: reduced or absent

## Cl.N=C(N)NCCC[C@H](N)C(=O)O [L-arginine Hydrochloride, L-arginine hydrochloride]
[1]; [12]
  Observation overnight: became viscous overnight;
[1]; [13]
  FINAL FORM: LIQUID
  Observation overnight: later; remained liquid overnight;
[8]
  pain in both the feet and hands: marked reduction in pain
[2]; 6 m HEPES 0.4 ml
  FINAL FORM: LIQUID
[2]; 6 m HEPES 0.5 cc/ml
  FINAL FORM: LIQUID
[3]
  gel formation of albumin samples: did not gel at any time and remained liquid

## N=C(N)NCCC[C@H](N)C(=O)O [L-arginine]
[4]
  accumulation of radiolabeled glucose metabolites in the kidneys compared with the control: reduced or absent
  gross and microscopic changes in the kidney compared to the control: reduced or absent
[5]
  binding of methylglyoxal to egg albumin: capable of blocking the binding
[6]
  binding of methylglyoxal to bovine serum albumin: capable of blocking the binding
  gelatin formation of bovine serum albumin when methylglyoxal is added: prevent gelatin formation
  blocking of the cross-linking of albumin by methylglyoxal or glyoxal: worked consistently
  conversion of bovine serum albumin from liquid to gelatin by methylglyoxal: the albumin remains liquid
  methylglyoxal-induced gel formation of liquid bovine serum albumin: block methylglyoxal-induced gel formation
[7]
  accumulation of radiolabeled methylglyoxal in the kidneys compared with the control: reduced or absent
  gross and microscopic changes in the kidney compared to the control: reduced or absent

## N=C(N)NN [aminoguanidine, reference compound]
[6]
  blocking of the cross-linking of albumin by methylglyoxal or glyoxal: do not block

## N=C(N)NCCC[C@H](N)C(=O)O [arginine, 2-amino-5-guanidovaleric acid]
[9]
  level of methylglyoxal in the blood: reduces
[10]
  changes caused by methylglyoxal: blocks

## NC(=O)NCCC[C@H](N)C(=O)O [citrulline, reference compound]
[6]
  blocking of the cross-linking of albumin by methylglyoxal or glyoxal: do not block

## NCCS [cystieamine, reference compound]
[6]
  blocking of the cross-linking of albumin by methylglyoxal or glyoxal: do not block

## N[C@@H](CSSC[C@H](N)C(=O)O)C(=O)O [cystine, reference compound]
[6]
  blocking of the cross-linking of albumin by methylglyoxal or glyoxal: do not block

## N/N=C(\N)NN [diaminoguanidine, reference compound]
[6]
  blocking of the cross-linking of albumin by methylglyoxal or glyoxal: do not block

## N=C(N)NCC(=O)O [glycocyamine, reference compound]
[6]
  blocking of the cross-linking of albumin by methylglyoxal or glyoxal: do not block

## N=C(N)N [guanidine, reference compound]
[1]; 2 ml BSA, 1 millimole protectant added to BSA, 1 millimole (0.18 ml of 40%) methylglyoxal pH adjusted to 7.40
  FINAL FORM: GEL
[6]
  blocking of the cross-linking of albumin by methylglyoxal or glyoxal: do not block

## CC(=O)C=O [methylglyoxal]
[11]; pH 7.35
  FINAL FORM: GEL
[11]; sample 1: 2 ml 30% BSA + 0.4 cc 6 m HEPES (pH 7.40), 1 millimole methylglyoxal (0.18 ml of 40%, pH not adjusted), no protectant, 98.6° F.
  time after mixing until firm yellow gelatin formed: <5 minutes after mixing
[11]; sample 3: 2 ml 30% BSA + 0.3 cc 6 m HEPES (pH 7.35), 0.20 ml of 40% methylglyoxal buffered to 7.36, counted from the 5-minute pH reading ('33 minutes later')
  time until sudden gelatin formation: pH 7.07 at 5 minutes; 33
[5]; 0.2 cc of 40% methylglyoxal, two cc of liquid ovalbumin, within a matter of hours, 1976 unpublished works
  conversion of liquid ovalbumin: from liquid to solid gelatin
[3]; pH 6.4 to 7.4, buffered and unbuffered systems
  product formed with bovine serum albumin: solid gelatin

## NC(N)=O [urea, reference compound]
[6]
  blocking of the cross-linking of albumin by methylglyoxal or glyoxal: do not block
